US20250057963A1, “DISCOVERY OF PIPERLONGUMINE AS A NOVEL E3 LIGASE LIGAND” (University of Florida Research Foundation, Incorporated, priority 2021, published 2025)
Entries after “also recorded” stand apart in the source; their conditions may differ.

How the values were obtained:
[1] = biological target: T1, CDK9 (Homo sapiens, UniProt P50750); settings: Olson et al., 2018; cited from earlier work
Target sequence in this assay (P50750 whole entry, species assumed): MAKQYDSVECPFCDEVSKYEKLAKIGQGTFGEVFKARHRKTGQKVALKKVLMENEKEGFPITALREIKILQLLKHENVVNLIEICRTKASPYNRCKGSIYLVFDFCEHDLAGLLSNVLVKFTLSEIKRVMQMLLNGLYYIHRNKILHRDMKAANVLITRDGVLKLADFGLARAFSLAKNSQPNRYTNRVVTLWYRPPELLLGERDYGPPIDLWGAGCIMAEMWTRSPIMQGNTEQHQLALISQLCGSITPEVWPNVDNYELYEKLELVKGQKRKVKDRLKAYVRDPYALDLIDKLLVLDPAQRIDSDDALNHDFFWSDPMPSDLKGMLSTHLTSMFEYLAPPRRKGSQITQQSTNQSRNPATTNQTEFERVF

[2] = biological target: T2, CDK10 (Homo sapiens, UniProt Q15131); settings: b290: Kinativ screening in MOLT4 lysates (Olson et al., 2018); cited from earlier work
T2 construct: endogenous in cells; host or cells: MOLT4

[3] = system: LNCaP, 22RV1, PC3 and DU145 prostate cancer cell lines; experiment: Viability (MTS) assay in prostate cancer cell lines; type: cell-based, Human; settings: Homo sapiens, 72 h, read-out: EC50, anti-proliferation
Description: All the cell lines were maintained in a humidified incubator at 37° C. and 5% CO2. […] The data were expressed as average % cell viability and fitted in non-linear regression curves using GraphPad Prism 9 (GraphPad Software, La Jolla, CA, USA).

[4] = system: LNCaP prostate cancer cells and H1299 lung cancer cells; experiment: Cell killing (MTS) with or without KEAP1 siRNA knockdown; type: cell-based, Human; settings: KEAP1 siRNA vs control siRNA 48 h; compound 0.1 mM (LNCaP) or 0.3 mM (H1299) for 24 h
Description: FIGS. 19A to 19B show percentages of cell killing in LNCaP (FIG. 19A) and H1299 (FIG. 19B) cells with or without KEAP1 knockdown. LNCaP and H1299 cells were treated with control siRNA or siRNAs targeting KEAP1 for 48 h and then reseeded and treated with indicated compound (0.1 mM for LNCaP cells and 0.3 mM for H1299 cells) for 24 h. The cell viability was then determined by MTS assay. The data are presented as mean±SD from three replicate cell cultures in a representative experiment. Data are representative of two independent experiments. Statistical significance was calculated with unpaired two-tailed Student's t-tests. **P<0.01; ***P<0.001; NS: not significant.
Viability (MTS) assays in various cancer cells followed the methods described in our previous report (Khan et al., 2019). The data were expressed as average % cell viability and fitted in non-linear regression curves using GraphPad Prism 9 (GraphPad Software, La Jolla, CA, USA).

[5] = biological target: T1, CDK9; experiment: TMT-based global proteomics in MOLT4 cells; type: cell-based; set-up: endogenous in cells; host or cells: MOLT4; settings: 0.1 μM 955 for 1 h and 6 h, 1 μM SNS-032 for 6 h
Source text: Sample Preparation and LC-MS/MS analysis. Total protein from cell pellets was reduced, alkylated, and purified by chloroform/methanol extraction prior to digestion with sequencing grade modified porcine trypsin (Cat. No. V5111, Promega). Tryptic peptides were labeled using tandem mass tag isobaric labeling reagents (Cat. No. A34808, ThermoFisher) following the manufacturer's instructions and combined into one 11-plex sample group. The labeled peptide multiplex was separated into 46 fractions on a 100×1.0 mm Acquity BEH C18 column (Waters) using an UltiMate 3000 UHPLC system (Thermo) with a 50 min gradient from 99:1 to 60:40 bufferA:B (Buffer A: 0.1% formic acid, 0.5% acetonitrile; Buffer B: 0.1% formic acid, 99.9% acetonitrile. Both buffers adjusted to pH 10 with ammonium hydroxide for offline separation) ratio under basic pH conditions, and then consolidated into 18 super-fractions. […]
Data processing and analysis. Proteins were identified and MS3 reporter ions quantified using MaxQuant (version 2.0.3.0; Max Planck Institute) against the Homo sapiens UniprotKB database (March 2021) with a parent ion tolerance of 3 ppm, a fragment ion tolerance of 0.5 Da, and a reporter ion tolerance of 0.003 Da. Scaffold Q+S (Proteome Software) was used to verify MS/MS based peptide and protein identifications (protein identifications were accepted if they could be established with less than 1.0% false discovery and contained at least 2 identified peptides; protein probabilities were assigned by the Protein Prophet algorithm (Nesvizhskii et al., 2003) and to perform reporter ion-based statistical analysis. Protein TMT MS3 reporter ion intensity values were assessed for quality using ProteiNorm for a systematic evaluation of normalization methods (Graw et al., 2020). Cyclic loess normalization (Ritchie et al., 2015) was utilized since it had the highest intragroup correlation and the lowest variance amongst the samples. […]
Target sequence in this assay (P50750 whole entry): as the sequence (P50750 whole entry, species assumed) above

[6] = biological target: T1, CDK9; settings: Table 1; b281 prints these figures as IC50; cited from earlier work
Target sequence in this assay (P50750 whole entry, species assumed): as above
Target sequence in this assay (O60563 whole entry partner, species assumed): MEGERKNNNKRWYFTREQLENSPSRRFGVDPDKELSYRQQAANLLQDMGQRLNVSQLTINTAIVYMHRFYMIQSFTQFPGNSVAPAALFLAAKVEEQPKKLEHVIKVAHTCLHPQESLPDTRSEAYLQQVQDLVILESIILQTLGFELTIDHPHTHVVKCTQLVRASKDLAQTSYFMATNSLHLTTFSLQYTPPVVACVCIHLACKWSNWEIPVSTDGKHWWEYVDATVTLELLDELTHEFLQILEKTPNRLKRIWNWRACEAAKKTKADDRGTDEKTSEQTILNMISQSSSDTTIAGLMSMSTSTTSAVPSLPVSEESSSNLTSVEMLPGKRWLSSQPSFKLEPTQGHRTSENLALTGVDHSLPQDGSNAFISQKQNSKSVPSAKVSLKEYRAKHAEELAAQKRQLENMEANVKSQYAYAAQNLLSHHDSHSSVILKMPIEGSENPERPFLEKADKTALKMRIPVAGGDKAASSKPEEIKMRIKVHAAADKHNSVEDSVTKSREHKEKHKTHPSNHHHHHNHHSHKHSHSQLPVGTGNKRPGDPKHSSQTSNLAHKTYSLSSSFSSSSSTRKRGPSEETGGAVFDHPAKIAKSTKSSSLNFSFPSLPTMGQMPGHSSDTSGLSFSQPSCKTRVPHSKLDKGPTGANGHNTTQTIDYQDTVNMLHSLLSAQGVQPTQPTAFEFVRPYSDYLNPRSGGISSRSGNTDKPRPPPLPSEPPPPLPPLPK

[7] = biological target: T1, CDK9; experiment: CDK9 degradation in MOLT4 cells (immunoblot); type: cell-based; set-up: endogenous in cells; host or cells: MOLT4, 293T, K562, NCI-H1299, LNCaP; settings: 6 h treatment
Description: All the cell lines were maintained in a humidified incubator at 37° C. and 5% CO2.
Data analysis was performed using GraphPad Prism software (version 9) unless indicated otherwise. All graphs presented represent the mean±standard deviation of the mean (SD) unless otherwise stated.
Target sequence in this assay (P50750 whole entry): as the sequence (P50750 whole entry, species assumed) above

T2 sequence (Q15131 whole entry): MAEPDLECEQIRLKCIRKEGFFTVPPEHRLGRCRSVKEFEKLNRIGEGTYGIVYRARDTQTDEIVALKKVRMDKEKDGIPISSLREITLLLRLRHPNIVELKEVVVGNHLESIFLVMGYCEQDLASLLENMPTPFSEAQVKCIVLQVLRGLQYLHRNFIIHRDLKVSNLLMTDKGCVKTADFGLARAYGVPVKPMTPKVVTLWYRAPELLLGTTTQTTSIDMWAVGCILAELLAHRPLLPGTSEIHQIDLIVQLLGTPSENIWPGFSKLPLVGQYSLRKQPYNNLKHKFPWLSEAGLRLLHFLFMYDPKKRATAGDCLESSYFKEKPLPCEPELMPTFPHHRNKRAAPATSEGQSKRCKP

CC(C)(C)c1cnc(CSc2cnc(NC(=O)C3CCN(CC(=O)NCCOCCOCCOCCNc4cccc5c4C(=O)N(C4CCC(=O)NC4=O)C5=O)CC3)s2)o1 (stereo not shown) [THAL-SNS-032]
degradation selectivity among SNS-032 targets [1]: could only degrade CDK9 but not other known SNS-032 targets

CC(C)(C)c1cnc(CSc2cnc(NC(=O)C3CCNCC3)s2)o1 [SNS-032, N-(5-(((5-(tert-butyl)oxazol-2-yl)methyl)thio)thiazol-2-yl)piperidine-4-carboxamide, reference compound]
binding of SNS-032 to CDK10 [2]: very low binding affinity; also recorded: moderate binding
EC50 [3]: > 100 nM
effect of KEAP1 knockdown on cytotoxicity of the compound [4]: no significant effect
CDK9 protein level (global proteome) [5]: no significant effect on CDK9
Binding Affinity, CDK9 [6]: CDK9: 4 nM
CDK9 degradation with short-term treatment [7]: no degradation effect; also recorded: could not
